Series [1] has as its system P. falciparum sphingomyelin synthase activity. As to the kind of experiment: Sphingomyelin synthase activity assay in trophozoite cultures (NBD-C6-ceramide). Format: cell-based, Plasmodium falciparum. As to conditions: trophozoites 20-30 h, 0-500 μM drug, 10 μM NBD-C6-ceramide, 60 min, 37°C. How it is done: SPM synthase activity was measured as described by Haldar et al.. Briefly, assays were performed on P. falciparum cultures at the trophozoite stage (20–30 h old parasites). 400 μl of culture (1 × 10^8 parasites) were incubated for 60 min at 37°C with 10 μM NBD-C6-ceramide and 0 to 500 μM PPMP or AD2646. Cells were then lysed by freezing and thawing of the culture. Lipids were extracted by a modification of the method of Bligh and Dyer. To each sample, three volumes of a CH3OH/CHCl3 mixture (1:2, v:v) were added and the mixture vortexed for one min. Organic and aqueous phases were separated by centrifugation (12,000 × g, five min) and the organic phase was dried. Lipids were dissolved in 15 μl ethanol and analysed by thin layer chromatography on HPTLC plates (Silica gel 60 F254, Merck, Darmstadt, Germany) in CH3OH/[…]/NH4OH (75:25:4, v:v:v). For qualitative analyses, the fluorescent lipids were detected under UV and for quantitative analyses, the fluorescent lipid spots were scraped, eluted in one ml methanol and quantified at an excitation of 470 nm and an emission of 530 nm in a spectrofluorometer. The percentage of SPM synthase activity for each drug concentration was determined by comparison of the fluorescence quantified in the analog-treated culture with that in the control culture (without drug).

A further series deals with P. falciparum. The arrangement: method as in PMID 7568097. The conditions noted are these: synchronized cultures at the ring stage; read-out: IC50 previously reported; cited from earlier work.
Series [2] has as its system P. falciparum synchronized cultures. In words: Parasite stage-specific inhibitory effects and reversibility (Giemsa-stained smears). As to conditions: rings, 24 hours incubation with 5 μM, then drug removal (data not shown). The class given is cell-based, Plasmodium falciparum.
The subject of a further series is human MRC-5 cells. As to the kind of experiment: Cytotoxicity test upon human embryonic cells (MTT). Format: cell-based. The conditions noted are these: Homo sapiens, MRC5, 120 h; MRC-5, five days, MTT; mean of three experiments. How it is done:
(§1) A human diploid embryonic lung cell line (MRC-5, Bio-Whittaker 72211D) was used to assess the cytotoxic effects towards eukaryotic host cells. MRC-5 cells were seeded at 5,000 cells per well in 100 μl. After 24 hours, the cells were washed and two-fold dilutions of the drug were added in 200 μl standard culture medium (RPMI medium + 5% fetal calf serum) and maintained for five days under 5% CO2 atmosphere. The final DMSO concentration in the culture remained below 0.1%. Untreated cultures were included as controls. The cytotoxicity was determined using the colorimetric MTT assay according to the manufacturer's recommendations (Cell proliferation kit I, Roche Applied Science, France) and scored as a percentage of reduction in absorption at 540 nm of treated cultures versus untreated control cultures. […] The results were expressed as the mean ± the standard deviations determined from several independent experiments. The index of selectivity was defined as the ratio of the IC50 value on MRC-5 to that of P. falciparum.

A short description of series [3]: Cytotoxicity test upon human embryonic cells (MTT). The conditions noted are these: human, MRC-5 human diploid embryonic lung cells; MRC-5, five days, MTT; mean of three experiments. The class given is cell-based. As to the method: as §1
In series [4] the test system is chloroquine-resistant strain FcB1 of P. falciparum. In words: Anti-Plasmodium activity, [3H]hypoxanthine microdilution on asynchronous cultures. The class given is cell-based, Plasmodium falciparum. As to conditions: Plasmodium falciparum; strain FcB1, asynchronous cultures, n = 3; read-out: IC50. How it is done: P. falciparum strains (FcB1/Colombia, K1/Thailand, F32/Tanzania, W2/Indochina) were maintained in continuous culture on human erythrocytes in RPMI medium containing 7% (v/v) heat-inactivated human serum under an atmosphere of 3% CO2, 6% O2, 91% N2, at 37°C, as described by Trager and Jensen. Parasite synchronization was performed successively by treatment with 5% (w/v) sorbitol and by concentration in gelatin solution as previously described.
Drug susceptibility assays were performed using a modification of the semi automated microdilution technique of Desjardins et al.. Stock solutions of test compounds were prepared in DMSO. Drug solutions were serially diluted twofold with 100 μl culture medium in 96-well plates. Asynchronous parasite cultures (100 μl, 1 % parasitemia and 1 % final hematocrite) were added to each well and incubated for 24 hours at 37°C prior to the addition of 0.5 μCi of [^3H] hypoxanthine (Amersham, France, 1 to 5 Ci.mmol/ml) per well. After a further incubation of 24 hour, plates were frozen and thawed. Cell lysates were then collected onto glass-filter papers and counted in a liquid scintillation spectrometer. The growth inhibition for each drug concentration was determined by comparison of the radioactivity incorporated in the treated culture with that in the control culture (having the same final % of DMSO) maintained on the same plate. The concentration causing 50% growth inhibition (IC50) and 90% growth (IC90) were obtained from the drug concentration-response curve and the results were expressed as the means ± the standard deviations determined from several independent experiments.

Series [5] has as its system tubovesicular network of P. falciparum. In words: Tubovesicular network formation, BODIPY-FL-C5-ceramide fluorescence microscopy. The class given is cell-based, Plasmodium falciparum. As to the method: Infected erythrocytes treated with or without ceramide analogs were incubated for 30 min, at 37°C, in culture medium containing 10 μM BODIPY-FL-C5-ceramide, washed three times with culture medium without serum and fixed overnight, at 4°C, in 3.7% formaldehyde/0.05% glutaraldehyde. Cells were mounted on poly-L-lysine coated slides and viewed using a Nikon Eclipse TE 300 DV inverted microscope with an 100X oil objective mounted on a piezzo electric device using appropriate fluorescence emission filters. Image acquisition (z-series) was performed with a back illuminated cooled detector (CCD EEV: NTE/CCD-1024-EB, Roper Scientific, France) using a 0.2 μm step. Data acquisition and image deconvolution process were performed with Metamorph software (Universal Imaging Corporation, Roper Scientific, France). The images presented correspond to the maximum intensity projection of the deconvoluted z-series.

The test system of series [6] is malaria-induced anion channel. In words: Malaria-induced anion channel activity, whole-cell patch-clamp. Format: cell-based, Plasmodium falciparum. As to conditions: infected erythrocytes, 24 hours, 250 nM AD2646 or 10 μM PPMP, whole-cell patch-clamp (unpublished data). The source says: Sphingolipids preferentially interact with cholesterol in membranes, especially in detergent-resistant microdomains (DRMs or rafts). Rafts have been described in Plasmodium and are involved, at least, in the uptake of erythrocyte raft proteins and maintenance of the parasitophorous vacuole containing the parasite, inside the erythrocyte. This interaction implies : 1) van der Waals interactions between the saturated acyl chain and sphingoid moiety of sphingolipids and the rigid planar tetracyclic rings of cholesterol and 2) hydrogen bonds between the 3-β hydroxyl group of cholesterol and the fatty acyl carbonyl group resulting from the amide linkage with the sphingoid moiety. The amide-linked fatty acid function seems to have a profound stabilizing effect on cholesterol-sphingolipid interactions. It could be hypothesized that in a membrane context, methylene analogs might have a destabilizing effect on the cholesterol-sphingolipid interactions and, in consequence, modifications of membrane properties. Indeed, P. falciparum growth is characterized by a setting up of new permeabilities of the infected-erythrocyte membrane. Although the biochemical nature of these new permeabilities is still unknown, they have been characterized from an electrophysiological point of view and involve a malaria-induced anion channel. […]
(In general: In patch-clamp work, channel activity is measured electrically.)

Consider `CCCCCCCCCCCCCCCC(=O)NC(CN1CCOCC1)C(O)c1ccccc1` (stereo not drawn) [PPMP, d,1-threo-1-phenyl-2-palmitoylamino-3-morpholino-1-propanol, reference compound], for which, in series [1], the “inhibition of SPM synthase activity (shape of curve)” value is recorded as “biphasic inhibition curve”. Besides, the IC50 (usually the midpoint of a concentration-inhibition curve) with P. falciparum was 0.85 µM; with human MRC-5 cells, 7.5 µM; in series [4] it was 9 ± 1.7 µM. The “reversibility of ring-stage block” value in series [2] is listed as “recovered to a normal growth after drug removal”. In series [3], it took 12.4 µM to reach the 90% level (IC90 at 5 days). For the same compound, the TVN formation entry in series [5] (rings incubated 24 hours with 60 nM AD2646 or 5 μM PPMP) is given as “no TVN was observed”. Moreover, in series [5] (rings, 24 hours, 5 μM), the ring development result is “totally inhibited”. Also, in series [6], the “induced anion channel activity” value is listed as “did not modulate significantly the induced channel activity”.

Source of the values: publication PMC539285, “Anti-Plasmodium activity of ceramide analogs” (Malaria Journal, 2004).
